In ChEMBL document CHEMBL5038639, “Designed Peptide Inhibitors of STEP Phosphatase-GluA2 AMPA Receptor Interaction Enhance the Cognitive Performance in Rats” (J Med Chem, 2022):
Active and inactive are the calls of the source. The rule behind the calls is not given here. Square brackets hold non-standard residues; d marks the D form. Peptide text beside a SMILES is read from it. pY = N[C@@H](Cc1ccc(OP(=O)(O)O)cc1)C(=O)O

Assays:
[1] = tested on: Rattus norvegicus; test: Cognitive enhancing effect in Wistar rat model of scopolamine-induced working memory impairment assessed as reduction in number of working memory errors at 5 mg/kg by Radial arm maze task; format: functional, organism-based
[2] = tested on: Rattus norvegicus; test: Cognitive enhancing effect in Wistar rat model of scopolamine-induced short term memory impairment assessed as increase in spontaneous alteration at 5 mg/kg measured by Y-maze method; format: functional, organism-based
[3] = molecular target: T1, Tyrosine-protein phosphatase non-receptor type 2 (Homo sapiens) (UniProt P17706); test: Inhibition of TC-PTP (unknown origin) at 1 mM using pNPP as substrate
T1 sequence (whole entry): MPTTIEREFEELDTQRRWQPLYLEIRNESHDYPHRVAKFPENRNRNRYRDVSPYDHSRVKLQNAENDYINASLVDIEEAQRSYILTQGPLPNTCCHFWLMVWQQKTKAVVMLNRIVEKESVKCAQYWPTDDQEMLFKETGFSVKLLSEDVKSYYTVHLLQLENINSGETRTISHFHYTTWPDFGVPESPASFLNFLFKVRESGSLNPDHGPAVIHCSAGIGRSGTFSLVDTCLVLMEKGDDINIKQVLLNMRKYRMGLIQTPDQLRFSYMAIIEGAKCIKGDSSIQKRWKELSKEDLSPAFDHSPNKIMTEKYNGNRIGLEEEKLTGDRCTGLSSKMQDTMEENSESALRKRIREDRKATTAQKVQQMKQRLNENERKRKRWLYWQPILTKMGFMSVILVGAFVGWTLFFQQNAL

[4] = molecular target: T2, Tyrosine-protein phosphatase non-receptor type 1 (Homo sapiens) (UniProt P18031); test: Inhibition of […] (unknown origin) at 1 mM using pNPP as substrate
T2 sequence (whole entry): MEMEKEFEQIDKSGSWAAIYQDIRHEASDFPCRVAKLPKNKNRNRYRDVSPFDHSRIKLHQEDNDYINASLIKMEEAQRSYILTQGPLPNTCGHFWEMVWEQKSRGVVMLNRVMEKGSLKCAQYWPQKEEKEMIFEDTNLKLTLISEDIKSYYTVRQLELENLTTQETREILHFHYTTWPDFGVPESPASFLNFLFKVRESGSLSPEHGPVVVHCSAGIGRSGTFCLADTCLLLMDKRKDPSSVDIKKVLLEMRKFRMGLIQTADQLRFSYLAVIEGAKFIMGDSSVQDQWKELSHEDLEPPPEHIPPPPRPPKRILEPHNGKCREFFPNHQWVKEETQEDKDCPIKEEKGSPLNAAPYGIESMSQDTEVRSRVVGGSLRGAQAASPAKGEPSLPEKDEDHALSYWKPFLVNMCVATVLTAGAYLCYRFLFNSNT

[5] = species on record: Rattus norvegicus; test: Cognitive enhancing effect in Wistar rat model of scopolamine-induced working memory impairment assessed as reduction in number of working memory errors at 15 uM by Radial arm maze task; format: functional, organism-based
[6] = species on record: Homo sapiens; test: Inhibition of GluA2-STEP32 C/S mutant (unknown origin) protein-protein interaction at 0.1 to 1 mM by Western blotting based pulldown assay; settings: dose 0.1-1 mM
[7] = tested on: HEK293; test: Inhibition of GluA2-STEP3 (unknown origin) protein-protein interaction expressed in HEK293 cells assessed as reduction in GluA2 dephosphorylation at pY876 residue at 0.1 mM incubated for 30 min by western blotting analysis; format: cell-based; settings: Homo sapiens
[8] = species on record: Rattus norvegicus; test: Anxiolytic activity in scopolamine-induced Wistar rat assessed as increase in number of entries in open arm measured at 15 uM for 5 min by elevated plus maze test; format: functional, organism-based
[9] = species on record: Rattus norvegicus; test: Cognitive enhancing effect in Wistar rat model of scopolamine-induced reference memory impairment assessed as reduction in number of reference memory error at 15 uM by Radial arm maze task; format: functional, organism-based
[10] = species on record: Rattus norvegicus; test: Anxiolytic activity in scopolamine-induced Wistar rat assessed as increase in time spent in open arm measured at 15 uM for 5 min by elevated plus maze test; format: functional, organism-based
[11] = species on record: Rattus norvegicus; test: Cognitive enhancing effect in Wistar rat model of scopolamine-induced short term memory impairment assessed as increase in spontaneous alteration at 15 uM measured by Y-maze method; format: functional, organism-based
[12] = species on record: Rattus norvegicus; test: Antidepressant activity in Wistar rat model of scopolamine-induced depressive like behavior assessed as increased swimming time at 15 uM measured after 24 hrs by forced swimming test; format: functional, organism-based
[13] = species on record: Rattus norvegicus; test: Antidepressant activity in Wistar rat model of scopolamine-induced depressive like behavior assessed as decrease in immobility time at 15 uM measured after 24 hrs by forced swimming test; format: functional, organism-based
[14] = tested on: Hippocampus; test: Effect on hippocampal population spike in Wistar rat assessed as increase in spike area and slope at 15 uM measured at 1 hr; format: functional, tissue-based
[15] = tested on: Hippocampus; test: Effect on hippocampal population spike in Wistar rat assessed as increase in amplitude at 15 uM measured after 3 hrs; format: functional, tissue-based
[16] = tested on: HEK293; test: Inhibition of GluA2-STEP3 (unknown origin) protein-protein interaction expressed in HEK293 cells assessed as reduction in GluA2 dephosphorylation at pY876 residue at 1 mM incubated for 30 min by western blotting analysis; format: cell-based; settings: Homo sapiens
[17] = tested on: Hippocampus; test: Effect on hippocampal population spike in Wistar rat assessed as increase in spike area and slope at 15 uM measured after 2 hrs; format: functional, tissue-based
[18] = tested on: Hippocampus; test: Effect on hippocampal population spike in Wistar rat assessed as decrease in population spike area at 1.5 mM measured upto 3 hrs; format: functional, tissue-based; settings: time hrs <=3

inhibition [3]	inhibition [4]	inhibition [6]	Compound	Activity [1]	Activity [2]	Activity [5]	inhibition [7]	Activity [8]	Activity [9]	Activity [10]	Activity [11]	Activity [12]	Activity [13]	Activity [14]	Activity [15]	inhibition [16]	Activity [17]	Activity [18]
			COc1cc2c(cc1OC)C(=O)C(CC1CCN(Cc3ccccc3)CC1)C2 (centres undefined)	Active	Active													
Active	Active	Active	CC(=O)N[C@@H](Cc1ccc(O)cc1)C(=O)NCC(=O)N[C@@H](CCCNC(=N)N)C(=O)N[C@@H](CCCCN)C(=O)N[C@@H](CCCCN)C(=O)N[C@@H](CCCNC(=N)N)C(=O)N[C@@H](CCCNC(=N)N)C(=O)N[C@@H](CCC(N)=O)C(=O)N[C@@H](CCCNC(=N)N)C(=O)N[C@@H](CCCNC(=N)N)C(=O)N[C@@H](CCCNC(=N)N)C(=O)N[C@@H](C)C(=O)N[C@H](C(=O)N[C@@H](Cc1ccc(O)cc1)C(=O)N[C@@H](CCCCN)C(=O)N[C@@H](CCC(=O)O)C(=O)NCC(=O)N[C@@H](Cc1ccc(O)cc1)C(=O)N[C@@H](CC(N)=O)C(=O)N[C@H](C(=O)N[C@@H](Cc1ccc(OP(=O)(O)O)cc1)C(=O)NCC(N)=O)C(C)C)[C@@H](C)O (Ac-YGRKKRRQRRRATYKEGYNV[pY]G-NH2)			Active	Active	Active	Active	Active	Active	Active	Active					
Active	Active	Active	CC(=O)N[C@@H](Cc1ccc(O)cc1)C(=O)NCC(=O)N[C@@H](CCCNC(=N)N)C(=O)N[C@@H](CCCCN)C(=O)N[C@@H](CCCCN)C(=O)N[C@@H](CCCNC(=N)N)C(=O)N[C@@H](CCCNC(=N)N)C(=O)N[C@@H](CCC(N)=O)C(=O)N[C@@H](CCCNC(=N)N)C(=O)N[C@@H](CCCNC(=N)N)C(=O)N[C@@H](CCCNC(=N)N)C(=O)N[C@@H](CCC(=O)O)C(=O)NCC(=O)N[C@@H](Cc1ccc(O)cc1)C(=O)N[C@@H](CC(N)=O)C(=O)N[C@H](C(=O)N[C@@H](Cc1ccc(OP(=O)(O)O)cc1)C(N)=O)C(C)C (Ac-YGRKKRRQRRREGYNV[pY]-NH2)			Active	Active	Active	Active	Active	Active	Active	Active					
Active	Active	Active	CC(=O)N[C@@H](Cc1ccc(O)cc1)C(=O)NCC(=O)N[C@@H](CCCNC(=N)N)C(=O)N[C@@H](CCCCN)C(=O)N[C@@H](CCCCN)C(=O)N[C@@H](CCCNC(=N)N)C(=O)N[C@@H](CCCNC(=N)N)C(=O)N[C@@H](CCC(N)=O)C(=O)N[C@@H](CCCNC(=N)N)C(=O)N[C@@H](CCCNC(=N)N)C(=O)N[C@@H](CCCNC(=N)N)C(=O)N[C@@H](CCC(=O)O)C(=O)NCC(=O)N[C@@H](Cc1ccc(O)cc1)C(=O)N[C@@H](CC(N)=O)C(=O)N[C@H](C(=O)N[C@@H](Cc1ccc(OP(=O)(O)O)cc1)C(=O)N[C@@H](CCC(=O)O)C(N)=O)C(C)C (Ac-YGRKKRRQRRREGYNV[pY]E-NH2)			Active	Active	Active	Active	Active	Active	Active	Active	Active	Active	Active	inactive	Active
Active	Active		Ac-YGRKKRRQRRRATYKEGYNVYG-NH2			Active		Active	Active	Active	Active	Active	Active					
